Assay results: patent US8158657B2, “Heterocycles substituted pyridine derivatives and antifungal agent containing thereof” (Eisai R&D Management Co., Ltd., priority 2005, dated 2012)
In brackets after ≈: the same amount, converted by molar mass.

What follows are compounds tested on A. fumigatus Tsukuba strain (assay: Anti-Aspergillus activity, MIC measurement). Conditions: RPMI1640, 42-48 hours at 35° C., visual inspection, read-out: Anti-Aspergillus Activity (minimum inhibitory concentration, MIC).
Format: cell-based
Summary of the method: (§1)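 C. albicans CAF2-1 was grown 48 h at 30° C. in SDB and diluted in RPMI1640 to 1.2×10^3 cells/mL. Frozen A. fumigatus Tsukuba was diluted to 4.5×10^3 cells/mL. Compounds, two-fold serially diluted in DMSO from 2.5 mg/mL, were cultured aerobically with fungi for 42-48 h at 35° C.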

Structure (SMILES)	MIC [µg/mL]
Cc1cccc(OCc2ccc(Cc3cc(-c4ccc(N)nc4N)on3)cc2)n1 [Example 15, 3-(3-(4-(6-Methyl-pyridin-2-yloxymethyl)-benzyl)-isoxazol-5-yl)-pyridin-2,6-diamine]	0.39 (≈ 1.01 µM)
Nc1ccc(-c2cnn(Cc3ccc(OCc4ccccc4)cc3)c2)c(N)n1 [Example 36, 3-(1-(4-Benzyloxy-benzyl)-1H-pyrazol-4-yl)-pyridin-2,6-diamine]	0.78 (≈ 2.1 µM)
Nc1ccc(-c2cc(Cc3ccc(Oc4ccccc4)nc3)no2)c(N)n1 [Example 40, 3-(3-(6-Phenoxy-pyridin-3-ylmethyl)-isoxazol-5-yl)-pyridin-2,6-diamine]	0.39 (≈ 1.09 µM)
Cc1ccnc(COc2ccc(Cc3cc(-c4ccc(N)nc4N)on3)cc2)c1 [Example 24, 3-(3-(4-(4-Methyl-pyridin-2-ylmethoxy)-benzyl)-isoxazol-5-yl)-pyridin-2,6-diamine]	0.78 (≈ 2.01 µM)
Nc1ccc(-c2cc(Cc3ccc(OCc4cccc(F)n4)cc3)no2)c(N)n1 [Example 104, 3-(3-(4-(6-Fluoro-pyridin-2-ylmethoxy)-benzyl)-isoxazol-5-yl)-pyridin-2,6-diamine]	0.78 (≈ 1.99 µM)
Nc1ccc(-c2cc(Cc3ccc(COc4ccccn4)cc3)no2)cn1 [Example 176]	0.2 (≈ 0.558 µM)
Nc1ccc(-c2cc(Cc3ccc(OCc4ccccc4)nc3)no2)c(N)n1 [Example 25, 3-(3-(6-benzyloxy-pyridin-3-ylmethyl)-isoxazol-5-yl)-pyridine-2,6-diamine]	0.2 (≈ 0.536 µM)
Nc1ncccc1-c1cc(Cc2ccc(OCc3ccccc3)cc2)on1 [Example 29, 3-(5-(4-Benzyloxy-benzyl)-isoxazol-3-yl)-pyridin-2-ylamine]	0.2 (≈ 0.56 µM)
Nc1ncccc1-c1cc(Cc2ccc(COc3ccccc3)nc2)no1 [Example 54, 3-(3-(6-Phenoxymethyl-pyridin-3-ylmethyl)-isoxazol-5-yl)-pyridin-2-ylamine]	0.39 (≈ 1.09 µM)
Nc1ncccc1-c1cc(Cc2ccc(OCc3ccc(F)cn3)cc2)no1 [Example 41, 3-(3-(4-(5-Fluoro-pyridin-2-ylmethoxy)-benzyl)-isoxazol-5-yl)-pyridin-2-ylamine]	0.2 (≈ 0.531 µM)
Nc1ccc(-c2cc(Cc3ccc(OCc4ccc(F)cc4)nc3)no2)c(N)n1 [Example 116, 3-(3-(6-(4-Fluoro-benzyloxy)-pyridin-3-ylmethyl)-isoxazol-5-yl)-pyridin-2,6-diamine]	0.2 (≈ 0.511 µM)

The compounds below were run on C. albicans CAF2-1 strain (assay: Anti-Candida activity, MIC measurement). Conditions: CAF21STRAIN, C. albicans CAF2-1, RPMI1640, 42-48 hours at 35° C., visual inspection, read-out: Anti-Candida Activity (minimum inhibitory concentration, MIC).
Format: cell-based
Summary of the method: as §1

Structure (SMILES)	MIC [µg/mL]
Cc1cccc(OCc2ccc(Cc3cc(-c4ccc(N)nc4N)on3)cc2)n1 [Example 15, 3-(3-(4-(6-Methyl-pyridin-2-yloxymethyl)-benzyl)-isoxazol-5-yl)-pyridin-2,6-diamine]	0.2 (≈ 0.516 µM)
Nc1ccc(-c2cnn(Cc3ccc(OCc4ccccc4)cc3)c2)c(N)n1 [Example 36, 3-(1-(4-Benzyloxy-benzyl)-1H-pyrazol-4-yl)-pyridin-2,6-diamine]	0.39 (≈ 1.05 µM)
Nc1ccc(-c2cc(Cc3ccc(Oc4ccccc4)nc3)no2)c(N)n1 [Example 40, 3-(3-(6-Phenoxy-pyridin-3-ylmethyl)-isoxazol-5-yl)-pyridin-2,6-diamine]	0.39 (≈ 1.09 µM)
Cc1ccnc(COc2ccc(Cc3cc(-c4ccc(N)nc4N)on3)cc2)c1 [Example 24, 3-(3-(4-(4-Methyl-pyridin-2-ylmethoxy)-benzyl)-isoxazol-5-yl)-pyridin-2,6-diamine]	0.39 (≈ 1.01 µM)
Nc1ccc(-c2cc(Cc3ccc(OCc4cccc(F)n4)cc3)no2)c(N)n1 [Example 104, 3-(3-(4-(6-Fluoro-pyridin-2-ylmethoxy)-benzyl)-isoxazol-5-yl)-pyridin-2,6-diamine]	0.78 (≈ 1.99 µM)
Nc1ccc(-c2cc(Cc3ccc(COc4ccccn4)cc3)no2)cn1 [Example 176]	0.2 (≈ 0.558 µM)
Nc1ccc(-c2cc(Cc3ccc(OCc4ccccc4)nc3)no2)c(N)n1 [Example 25, 3-(3-(6-benzyloxy-pyridin-3-ylmethyl)-isoxazol-5-yl)-pyridine-2,6-diamine]	0.2 (≈ 0.536 µM)
Nc1ncccc1-c1cc(Cc2ccc(OCc3ccccc3)cc2)on1 [Example 29, 3-(5-(4-Benzyloxy-benzyl)-isoxazol-3-yl)-pyridin-2-ylamine]	0.39 (≈ 1.09 µM)
Nc1ncccc1-c1cc(Cc2ccc(COc3ccccc3)nc2)no1 [Example 54, 3-(3-(6-Phenoxymethyl-pyridin-3-ylmethyl)-isoxazol-5-yl)-pyridin-2-ylamine]	0.1 (≈ 0.279 µM)
Nc1ncccc1-c1cc(Cc2ccc(OCc3ccc(F)cn3)cc2)no1 [Example 41, 3-(3-(4-(5-Fluoro-pyridin-2-ylmethoxy)-benzyl)-isoxazol-5-yl)-pyridin-2-ylamine]	0.39 (≈ 1.04 µM)
Nc1ccc(-c2cc(Cc3ccc(OCc4ccc(F)cc4)nc3)no2)c(N)n1 [Example 116, 3-(3-(6-(4-Fluoro-benzyloxy)-pyridin-3-ylmethyl)-isoxazol-5-yl)-pyridin-2,6-diamine]	0.78 (≈ 1.99 µM)

Each compound was assayed on C. albicans E81022 strain (assay: Experimental systemic candidal infection model in mice). Conditions: 2.5 mg/kg, peroral, 3 times every 4 hours, female ICR mice, observed until 14 days after infection.
Format: in vivo
Protocol: A standing culture of C. albicans E81022 strain was carried out for 48 hours at 30° C. in sabouraud dextrose agar medium (SDA), the recovered fungal cells were suspended in sterilized physiological saline. By counting the fungal number on cytometry plate, the suspension was diluted to 2×10^7 cells/mL with sterilized physiological saline to serve fungal inoculum.
The fungal inoculum was used in the amounts of 0.2 mL to inoculate 4.5 to 5.5 week-old female ICR mice in the tail vein (4×10^6 cells/mouse).
From 0.5 to 1 hour after fungal inoculation, 0.2 mL of agent solution (dissolved or suspended in sterilized physiological saline containing 6.5% dimethyl sulfoxide and 3.5% Tween 80) was administered into the stomach using a peroral probe, 3 times every 4 hours. The agent concentration was 2.5 mg/kg or 10 mg/kg, and the number of animals in one group was 5 animals.
The protective effect was determined by observing life/death until 14 days after infection and calculating the mean survival days.

Structure (SMILES)	Mean Survival Days [days]
Cc1cccc(OCc2ccc(Cc3cc(-c4ccc(N)nc4N)on3)cc2)n1 [Example 15, 3-(3-(4-(6-Methyl-pyridin-2-yloxymethyl)-benzyl)-isoxazol-5-yl)-pyridin-2,6-diamine]	10.8
Nc1ccc(-c2cnn(Cc3ccc(OCc4ccccc4)cc3)c2)c(N)n1 [Example 36, 3-(1-(4-Benzyloxy-benzyl)-1H-pyrazol-4-yl)-pyridin-2,6-diamine]	9.4
Nc1ccc(-c2cc(Cc3ccc(Oc4ccccc4)nc3)no2)c(N)n1 [Example 40, 3-(3-(6-Phenoxy-pyridin-3-ylmethyl)-isoxazol-5-yl)-pyridin-2,6-diamine]	11.6
Cc1ccnc(COc2ccc(Cc3cc(-c4ccc(N)nc4N)on3)cc2)c1 [Example 24, 3-(3-(4-(4-Methyl-pyridin-2-ylmethoxy)-benzyl)-isoxazol-5-yl)-pyridin-2,6-diamine]	7.4
Nc1ccc(-c2cc(Cc3ccc(OCc4cccc(F)n4)cc3)no2)c(N)n1 [Example 104, 3-(3-(4-(6-Fluoro-pyridin-2-ylmethoxy)-benzyl)-isoxazol-5-yl)-pyridin-2,6-diamine]	8.2
Nc1ccc(-c2cc(Cc3ccc(COc4ccccn4)cc3)no2)cn1 [Example 176]	12.6
Nc1ccc(-c2cc(Cc3ccc(OCc4ccccc4)nc3)no2)c(N)n1 [Example 25, 3-(3-(6-benzyloxy-pyridin-3-ylmethyl)-isoxazol-5-yl)-pyridine-2,6-diamine]	12.2
Nc1ncccc1-c1cc(Cc2ccc(COc3ccccc3)nc2)no1 [Example 54, 3-(3-(6-Phenoxymethyl-pyridin-3-ylmethyl)-isoxazol-5-yl)-pyridin-2-ylamine]	13.0
Nc1ncccc1-c1cc(Cc2ccc(OCc3ccc(F)cn3)cc2)no1 [Example 41, 3-(3-(4-(5-Fluoro-pyridin-2-ylmethoxy)-benzyl)-isoxazol-5-yl)-pyridin-2-ylamine]	11.4
Nc1ccc(-c2cc(Cc3ccc(OCc4ccc(F)cc4)nc3)no2)c(N)n1 [Example 116, 3-(3-(6-(4-Fluoro-benzyloxy)-pyridin-3-ylmethyl)-isoxazol-5-yl)-pyridin-2,6-diamine]	4.6

Same assay, conditions: 10 mg/kg, peroral, 3 times every 4 hours, female ICR mice, observed until 14 days after infection

Structure (SMILES)	Mean Survival Days [days]
Cc1cccc(OCc2ccc(Cc3cc(-c4ccc(N)nc4N)on3)cc2)n1 [Example 15, 3-(3-(4-(6-Methyl-pyridin-2-yloxymethyl)-benzyl)-isoxazol-5-yl)-pyridin-2,6-diamine]	12.6
Nc1ccc(-c2cnn(Cc3ccc(OCc4ccccc4)cc3)c2)c(N)n1 [Example 36, 3-(1-(4-Benzyloxy-benzyl)-1H-pyrazol-4-yl)-pyridin-2,6-diamine]	14.0
Nc1ccc(-c2cc(Cc3ccc(Oc4ccccc4)nc3)no2)c(N)n1 [Example 40, 3-(3-(6-Phenoxy-pyridin-3-ylmethyl)-isoxazol-5-yl)-pyridin-2,6-diamine]	14.0
Cc1ccnc(COc2ccc(Cc3cc(-c4ccc(N)nc4N)on3)cc2)c1 [Example 24, 3-(3-(4-(4-Methyl-pyridin-2-ylmethoxy)-benzyl)-isoxazol-5-yl)-pyridin-2,6-diamine]	14.0
Nc1ccc(-c2cc(Cc3ccc(OCc4cccc(F)n4)cc3)no2)c(N)n1 [Example 104, 3-(3-(4-(6-Fluoro-pyridin-2-ylmethoxy)-benzyl)-isoxazol-5-yl)-pyridin-2,6-diamine]	13.2
Nc1ccc(-c2cc(Cc3ccc(COc4ccccn4)cc3)no2)cn1 [Example 176]	13.4
Nc1ncccc1-c1cc(Cc2ccc(OCc3ccccc3)cc2)on1 [Example 29, 3-(5-(4-Benzyloxy-benzyl)-isoxazol-3-yl)-pyridin-2-ylamine]	11.4
Nc1ncccc1-c1cc(Cc2ccc(COc3ccccc3)nc2)no1 [Example 54, 3-(3-(6-Phenoxymethyl-pyridin-3-ylmethyl)-isoxazol-5-yl)-pyridin-2-ylamine]	13.6
Nc1ncccc1-c1cc(Cc2ccc(OCc3ccc(F)cn3)cc2)no1 [Example 41, 3-(3-(4-(5-Fluoro-pyridin-2-ylmethoxy)-benzyl)-isoxazol-5-yl)-pyridin-2-ylamine]	11.8
Nc1ccc(-c2cc(Cc3ccc(OCc4ccc(F)cc4)nc3)no2)c(N)n1 [Example 116, 3-(3-(6-(4-Fluoro-benzyloxy)-pyridin-3-ylmethyl)-isoxazol-5-yl)-pyridin-2,6-diamine]	12.6
